Entries after “also recorded” stand apart in the source; their conditions may differ. [I] = hypoxanthine (inosine)
Experiments:
TLR7 = target: T1, TLR7 (Homo sapiens, UniProt Q9NYK1); assay type: cell-based
T1 construct: endogenous in cells; host or cells: primary human plasmacytoid dendritic cells from blood donors
T1 sequence (Q9NYK1 27-1049): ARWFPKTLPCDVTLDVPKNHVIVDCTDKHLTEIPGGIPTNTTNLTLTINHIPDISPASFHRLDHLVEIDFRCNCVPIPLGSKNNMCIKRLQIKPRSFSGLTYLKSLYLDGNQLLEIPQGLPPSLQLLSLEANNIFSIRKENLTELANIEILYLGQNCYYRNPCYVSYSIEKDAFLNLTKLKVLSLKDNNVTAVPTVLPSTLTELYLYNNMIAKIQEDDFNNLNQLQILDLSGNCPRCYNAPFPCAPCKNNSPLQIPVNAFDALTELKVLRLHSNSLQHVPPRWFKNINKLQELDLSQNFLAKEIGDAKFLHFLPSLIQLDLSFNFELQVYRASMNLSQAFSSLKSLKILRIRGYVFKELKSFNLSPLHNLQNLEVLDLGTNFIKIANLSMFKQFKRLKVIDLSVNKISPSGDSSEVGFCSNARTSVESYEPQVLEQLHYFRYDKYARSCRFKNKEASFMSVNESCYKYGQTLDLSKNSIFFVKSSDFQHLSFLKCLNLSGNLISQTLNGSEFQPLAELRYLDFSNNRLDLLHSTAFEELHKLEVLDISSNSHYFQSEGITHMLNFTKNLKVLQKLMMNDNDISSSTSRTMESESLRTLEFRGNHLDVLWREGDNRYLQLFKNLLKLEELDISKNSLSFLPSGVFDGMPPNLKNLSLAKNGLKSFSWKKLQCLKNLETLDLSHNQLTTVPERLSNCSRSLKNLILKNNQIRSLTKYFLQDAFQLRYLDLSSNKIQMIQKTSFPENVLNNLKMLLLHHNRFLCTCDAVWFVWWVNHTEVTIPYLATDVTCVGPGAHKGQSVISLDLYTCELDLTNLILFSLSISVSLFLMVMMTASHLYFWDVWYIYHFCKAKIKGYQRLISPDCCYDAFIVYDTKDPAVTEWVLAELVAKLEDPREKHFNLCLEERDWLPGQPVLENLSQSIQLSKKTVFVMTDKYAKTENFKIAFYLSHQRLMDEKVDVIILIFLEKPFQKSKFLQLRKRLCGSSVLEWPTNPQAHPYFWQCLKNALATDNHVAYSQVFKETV

TLR9 = target: T2, TLR9 (Mus musculus, UniProt Q9EQU3); experiment: CpG-C ISS-induced serum cytokines in 129 mice; assay type: in vivo; conditions: CpG-C ISS with IRS, serum at 6 hr, listed as IRS
T2 construct: endogenous in cells; host or cells: 129 mice, whole animal (serum IFN-alpha and IL-6)
T2 sequence (Q9EQU3 26-1032): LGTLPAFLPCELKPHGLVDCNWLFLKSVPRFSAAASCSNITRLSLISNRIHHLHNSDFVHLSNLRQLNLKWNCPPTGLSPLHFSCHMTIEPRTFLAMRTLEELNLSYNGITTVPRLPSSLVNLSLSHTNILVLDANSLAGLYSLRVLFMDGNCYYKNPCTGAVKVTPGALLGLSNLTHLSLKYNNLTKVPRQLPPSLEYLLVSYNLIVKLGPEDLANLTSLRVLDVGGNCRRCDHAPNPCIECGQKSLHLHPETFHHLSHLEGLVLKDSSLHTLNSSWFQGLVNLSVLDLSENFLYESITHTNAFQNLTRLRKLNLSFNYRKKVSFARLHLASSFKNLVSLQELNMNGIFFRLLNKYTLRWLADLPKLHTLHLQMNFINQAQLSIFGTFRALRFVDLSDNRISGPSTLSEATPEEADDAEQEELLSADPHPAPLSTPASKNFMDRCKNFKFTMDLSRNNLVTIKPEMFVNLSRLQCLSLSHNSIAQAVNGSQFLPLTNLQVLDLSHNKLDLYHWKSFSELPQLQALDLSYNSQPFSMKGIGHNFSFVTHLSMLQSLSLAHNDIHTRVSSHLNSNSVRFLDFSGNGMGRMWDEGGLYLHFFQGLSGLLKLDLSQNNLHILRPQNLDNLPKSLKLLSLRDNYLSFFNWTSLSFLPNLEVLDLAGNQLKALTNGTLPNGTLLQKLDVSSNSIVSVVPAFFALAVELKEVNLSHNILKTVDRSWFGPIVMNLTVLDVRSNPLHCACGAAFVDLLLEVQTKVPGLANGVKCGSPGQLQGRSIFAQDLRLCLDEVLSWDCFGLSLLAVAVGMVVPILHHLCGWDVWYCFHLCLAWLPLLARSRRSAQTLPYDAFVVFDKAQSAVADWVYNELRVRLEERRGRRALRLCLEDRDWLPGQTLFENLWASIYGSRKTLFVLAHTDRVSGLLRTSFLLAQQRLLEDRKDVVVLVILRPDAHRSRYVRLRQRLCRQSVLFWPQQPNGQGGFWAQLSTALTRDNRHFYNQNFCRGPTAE
Description: 129 mice were either left untreated or treated with CpG-C ISS (50 μg/mice) alone or with IRS (50 μg/mice) and serum was collected 6 hr later. IFN-α and IL-6 was evaluated by ELISA. n=6 mice per group±standard error of the mean.

TLR7 and TLR9 = experiment: Type I IFN-regulated genes in spleens of lupus-prone mice (Taqman); assay type: in vivo, mouse; conditions: (NZBxNZW)F1 and TLR7.Tg.6, IRS 100 μg s.c. every 3 days for 10 days
Description: (A) (NZBxNZW)F1 mice were treated as described in FIG. 16 but when mice received IRS, different doses of GC were used (in mg per mouse here) (B) (NZBxNZW)F1 and (C) TLR7.Tg.6 mice were left untreated or treated with IRS (100 μg/mice s.c) every 3 days for 10 days and spleens were harvested 18 hr after the last IRS injection. RNA was prepared from the spleens of the animals and the levels of type I IFN-regulated genes were measured by quantitative analysis (Taqman). Averages±standard error of the mean for n=6-10 mice per group.
PCR reactions were performed as described previously (Barrat et al., 2005). In brief, RNA was extracted from collagenase D-treated splenocyte suspensions with Qiagen RNA and cDNA was generated with SuperScript First-Strand Synthesis System (Invitrogen). ECT was threshold cycle (CT) values for each gene were normalized to the housekeeping genes ubiquitin or β-actin using the formula Eq. 1.8(HSKGENE) (100,000), where HSK is the mean CT of triplicate housekeeping gene runs, GENE is the mean CT of duplicate runs of the gene of interest, and 100,000 is arbitrarily chosen as a factor to bring all values above 0.

5′-TGC TCC TGG AGI GGT TGT-3′ (DNA TGCTCCTGGAGNGGTTGT; DNA, [I] at 12, backbone and methylation of C not given here) [SEQ ID NO:73]
IC50 (TLR7; read-out: IC50, IFN-α, FLU): 13 nM | IC90 (TLR7; read-out: IC90, IFN-α, FLU): 101 nM

5′-TGCTCCTGGAGGGGTTGT-3′ (DNA, backbone not given here) [SEQ ID NO:42]
CpG-ISS-induced activation, serum IFN-α and IL-6 (TLR9): prevented CpG-ISS-induced activation; also recorded: significantly reduced CpG-C ISS-mediated induction of cytokines | expression of IFN-regulated genes (TLR7 and TLR9): reduced the expression of IFN-regulated genes but not TNF-α

— patent US8940310B2, “Methods of treatment using TLR7 and/or TLR9 inhibitors” (Dynavax Technologies Corporation, priority 2010, dated 2015)
